# Data published in patent US6683027B2, “Herbicidal mixtures” (BASF Aktienegesellschaft, priority 2000, dated 2004).
# Tests used:
# Type in all cases: in vivo
# Alopecurus myosuroides [1] = assay: greenhouse post-emergence trial, percent damage vs untreated control 21 days after treatment; conditions: ALOMY; for flupyrsulfuron alone (% control): Example 5; for fenoxaprop alone (% control): Example 13; for MCPA alone (% control): Example 4; for pendimethalin alone (% control): Example 14
# Procedure: (§1) The trials are carried out under greenhouse conditions in pre- and post-emergence applications. The plant seeds are sown in pots containing a loamy sand soil (0.5 l). The herbicides are applied as single treatments, or in a combination comprising a compound of formula I and compound selected from group (2) as defined above, before or after emergence of weeds and crop. The herbicidal performance is assessed as percent damage in comparison to the untreated control plants. The assessment is done 21 days after the treatment. Wheat and barley are treated at the 3-4 leaf stage, the broad-leaf weeds at the 2-4 leaf stage and annual grasses at the 2-3 leaf stage.
# Apera spica-venti = assay: as above; conditions: APESV; for cinidon-ethyl alone (% control): Example 10; for clodinafop alone (% control): Example 12; for pendimethalin alone (% control): Example 14; for mecoprop alone (% control): Example 7
# Procedure: as §1
# Galium aparine [2] = assay: as above; conditions: GALAP; for flupyrsulfuron alone (% control): Example 5; for clodinafop alone (% control): Example 12
# Procedure: as §1
# Lolium perenne = assay: as above; conditions: LOLPE; for fenoxaprop alone (% control): Example 13; for MCPA alone (% control): Example 4; for mecoprop alone (% control): Example 7
# Procedure: as §1
# Setaria viridis = assay: as above; conditions: SETVI; for flupyrsulfuron alone (% control): Example 5; for cinidon-ethyl alone (% control): Example 10; for carfentrazone alone (% control): Example 9; for MCPA alone (% control): Example 4
# Procedure: as §1
# Matricaria inodora = assay: as above; conditions: MATIN; for cinidon-ethyl alone (% control): Example 10; for carfentrazone alone (% control): Example 9
# Procedure: as §1
# Lamium purpureum = assay: as above; conditions: LAMPU; for ioxynil alone (% control): Example 8; for clodinafop alone (% control): Example 12; for MCPA alone (% control): Example 4; for mecoprop alone (% control): Example 7
# Procedure: as §1
# Stellaria media = assay: as above; conditions: STEME; for fenoxaprop alone (% control): Example 13
# Procedure: as §1
# Alopecurus myosuroides [3] = assay: greenhouse pre-emergence trial, percent damage vs untreated control 21 days after treatment; conditions: ALOMY, Example 3
# Galium aparine [4] = assay: as above; conditions: GALAP, Example 3
compound,measurement,setting,value
"COc1cc(OC)nc(NC(=O)NS(=O)(=O)c2nc(C(F)(F)F)ccc2C(=O)O)n1 [flupyrsulfuron, reference compound]",flupyrsulfuron alone (% control),Alopecurus myosuroides [1]; 2.5 g/ha,35%
same,flupyrsulfuron alone (% control),Alopecurus myosuroides [1]; 5 g/ha,53%
same,flupyrsulfuron alone (% control),Alopecurus myosuroides [1]; 10 g/ha,73%
same,flupyrsulfuron alone (% control),"Apera spica-venti; 2.5 g/ha, Example 5",0%
same,flupyrsulfuron alone (% control),Galium aparine [2]; 5 g/ha,0%
same,flupyrsulfuron alone (% control),Galium aparine [2]; 10 g/ha,0%
same,flupyrsulfuron alone (% control),"Lolium perenne; 10 g/ha, Example 5",10%
same,flupyrsulfuron alone (% control),Setaria viridis; 2.5 g/ha,0%
same,flupyrsulfuron alone (% control),Setaria viridis; 5 g/ha,10%
same,flupyrsulfuron alone (% control),Setaria viridis; 10 g/ha,10%
"CCOC(=O)C(Cl)=Cc1cc(N2C(=O)C3=C(CCCC3)C2=O)ccc1Cl [cinidon-ethyl, reference compound]",cinidon-ethyl alone (% control),Apera spica-venti; 25 g/ha,0%
same,cinidon-ethyl alone (% control),Apera spica-venti; 50 g/ha,0%
same,cinidon-ethyl alone (% control),"Galium aparine [2]; 25 g/ha, Example 10",20%
same,cinidon-ethyl alone (% control),Matricaria inodora; 12.5 g/ha,53%
same,cinidon-ethyl alone (% control),Matricaria inodora; 25 g/ha,68%
same,cinidon-ethyl alone (% control),Setaria viridis; 25 g/ha,0%
same,cinidon-ethyl alone (% control),Setaria viridis; 50 g/ha,0%
N#Cc1cc(I)c(O)c(I)c1 [ioxynil],ioxynil alone (% control),"Apera spica-venti; 120 g/ha, Example 8",0%
same,ioxynil alone (% control),Lamium purpureum; 60 g/ha,0%
same,ioxynil alone (% control),Lamium purpureum; 120 g/ha,15%
same,ioxynil alone (% control),Lamium purpureum; 240 g/ha,28%
same,ioxynil alone (% control),"Lolium perenne; 240 g/ha, Example 8",0%
"Cc1nn(-c2cc(CC(Cl)C(=O)O)c(Cl)cc2F)c(=O)n1C(F)F (stereo not shown) [carfentrazone, reference compound]",carfentrazone alone (% control),Matricaria inodora; 1.88 g/ha,0%
same,carfentrazone alone (% control),Matricaria inodora; 15 g/ha,48%
same,carfentrazone alone (% control),Setaria viridis; 1.88 g/ha,0%
same,carfentrazone alone (% control),Setaria viridis; 15 g/ha,0%
same,carfentrazone alone (% control),"Stellaria media; 1.88 g/ha, Example 9",0%
"CC(Oc1ccc(Oc2nc3ccc(Cl)cc3o2)cc1)C(=O)O (stereo not shown) [fenoxaprop, reference compound]",fenoxaprop alone (% control),Alopecurus myosuroides [1]; 15 g/ha,0%
same,fenoxaprop alone (% control),Alopecurus myosuroides [1]; 30 g/ha,0%
same,fenoxaprop alone (% control),"Apera spica-venti; 30 g/ha, Example 13",58%
same,fenoxaprop alone (% control),Lolium perenne; 15 g/ha,3%
same,fenoxaprop alone (% control),Lolium perenne; 60 g/ha,43%
same,fenoxaprop alone (% control),"Matricaria inodora; 30 g/ha, Example 13",0%
same,fenoxaprop alone (% control),Stellaria media; 30 g/ha,0%
same,fenoxaprop alone (% control),Stellaria media; 60 g/ha,0%
"C[C@@H](Oc1ccc(Oc2ncc(Cl)cc2F)cc1)C(=O)O [clodinafop, reference compound]",clodinafop alone (% control),"Alopecurus myosuroides [1]; 7.5 g/ha, Example 12",10%
same,clodinafop alone (% control),Apera spica-venti; 15 g/ha,0%
same,clodinafop alone (% control),Apera spica-venti; 30 g/ha,15%
same,clodinafop alone (% control),Galium aparine [2]; 7.5 g/ha,0%
same,clodinafop alone (% control),Galium aparine [2]; 15 g/ha,0%
same,clodinafop alone (% control),Galium aparine [2]; 30 g/ha,0%
same,clodinafop alone (% control),Lamium purpureum; 7.5 g/ha,0%
same,clodinafop alone (% control),Lamium purpureum; 15 g/ha,0%
same,clodinafop alone (% control),"Lolium perenne; 15 g/ha, Example 12",65%
"Cc1cc(Cl)ccc1OCC(=O)O [MCPA, reference compound]",MCPA alone (% control),Alopecurus myosuroides [1]; 120 g/ha,0%
same,MCPA alone (% control),Alopecurus myosuroides [1]; 240 g/ha,0%
same,MCPA alone (% control),Alopecurus myosuroides [1]; 480 g/ha,0%
same,MCPA alone (% control),"Apera spica-venti; 240 g/ha, Example 4",0%
same,MCPA alone (% control),Lamium purpureum; 120 g/ha,0%
same,MCPA alone (% control),Lamium purpureum; 240 g/ha,0%
same,MCPA alone (% control),Lamium purpureum; 480 g/ha,13%
same,MCPA alone (% control),Lolium perenne; 120 g/ha,0%
same,MCPA alone (% control),Lolium perenne; 240 g/ha,10%
same,MCPA alone (% control),Setaria viridis; 120 g/ha,25%
same,MCPA alone (% control),Setaria viridis; 240 g/ha,43%
same,MCPA alone (% control),"Stellaria media; 480 g/ha, Example 4",65%
"CCS(=O)(=O)c1nc2ccccn2c1S(=O)(=O)NC(=O)Nc1nc(OC)cc(OC)n1 [sulfosulfuron, reference compound]",sulfosulfuron alone (% control),"Lolium perenne; 3.75 g/ha, Example 6",18%
"CCC(CC)Nc1c([N+](=O)[O-])cc(C)c(C)c1[N+](=O)[O-] [pendimethalin, reference compound]",pendimethalin alone (% control),Alopecurus myosuroides [1]; 120 g/ha,0%
same,pendimethalin alone (% control),Alopecurus myosuroides [1]; 240 g/ha,15%
same,pendimethalin alone (% control),Apera spica-venti; 120 g/ha,5%
same,pendimethalin alone (% control),Apera spica-venti; 240 g/ha,40%
same,pendimethalin alone (% control),"Galium aparine [2]; 120 g/ha, Example 14",23%
same,pendimethalin alone (% control),"Setaria viridis; 480 g/ha, Example 14",40%
"Cc1cc(Cl)ccc1OC(C)C(=O)O (stereo not shown) [mecoprop, reference compound]",mecoprop alone (% control),Apera spica-venti; 240 g/ha,0%
same,mecoprop alone (% control),Apera spica-venti; 480 g/ha,0%
same,mecoprop alone (% control),Apera spica-venti; 960 g/ha,0%
same,mecoprop alone (% control),Lamium purpureum; 240 g/ha,10%
same,mecoprop alone (% control),Lamium purpureum; 480 g/ha,48%
same,mecoprop alone (% control),Lolium perenne; 240 g/ha,0%
same,mecoprop alone (% control),Lolium perenne; 480 g/ha,0%
same,mecoprop alone (% control),Lolium perenne; 960 g/ha,0%
"CC(C)OC(=O)c1cc(-c2nn(C)c(C(F)(F)F)c2Br)c(F)cc1Cl [JV 485, isopropyl 2-chloro-4-fluoro-5-(4-bromo-1-methyl-6-trifluoromethyl-pyrazol-3-yl)-benzoate, reference compound]",JV 485 alone (% control),Alopecurus myosuroides [3]; 30 g/ha,10%
same,JV 485 alone (% control),Alopecurus myosuroides [3]; 60 g/ha,25%
same,JV 485 alone (% control),Alopecurus myosuroides [3]; 120 g/ha,65%
same,JV 485 alone (% control),Galium aparine [4]; 60 g/ha,0%
same,JV 485 alone (% control),Galium aparine [4]; 120 g/ha,63%
